Values of other authors, collected in patent publication US7745427B2, “CGRP receptor antagonists” (Merck Sharp & Dohme Corp., priority 2004, dated 2010).
No end group written: not given here.

Experiments:
[1] = tested on: acute attacks of migraine; settings: clinical trials; Olesen et al. 2004
facial blood flow [2] = settings: marmoset; Doods et al. 2000
facial blood flow [3] = settings: rat; Escott et al. 1995
middle meningeal artery = settings: rats, prior administration; Williamson et al. 1997

Row | Compound | treating acute attacks of migraine [1] | increase in facial blood flow (facial blood flow [2]) | increased facial blood flow (facial blood flow [3]) | increase in diameter of the middle meningeal artery (middle meningeal artery)
1 | NCCCC[C@H](NC(=O)[C@@H](Cc1cc(Br)c(O)c(Br)c1)NC(=O)N1CCC(N2Cc3ccccc3NC2=O)CC1)C(=O)N1CCN(c2ccncc2)CC1 [BIBN4096BS] | effective | blocked |  | 
2 | CGRP(8-37): "a peptide CGRP antagonist" (VTHRLAGLLSRSGGVVKNNFVPTNVGSKAF; ends and bridges not checked; UniProt P06881 90-119, looked up, fragment) |  |  | inhibited | blocked
